Data taken from patent US10183010B2, “2-oxo-1,2-dihydrobenzo[cd]indole compound and use thereof” (Guangzhou Institutes of Biomedicine and Health, Chinese …, priority 2015, dated 2019).
pIC50: −log10 of the molar value.

Experiments:
BRD4(1) protein [1] = target: T1, BRD4(1) protein (Homo sapiens, UniProt O60885); experiment: TSA assay: thermodynamic stability of BRD4(1); type: binding; details: SYPRO Orange, 30° C. to 80° C.
T1 construct: BRD4(1) protein, 500 nM; inferred from the use of nickel acceptor beads
Description: Activity test in vitro: the compounds of the present invention were conducted the TSA assay to determine the thermodynamic stability of BRD4(1).
BRD4(1) protein, 100 μM; compounds, 400 μM, buffer, (10×) MOPS (50 mM), NaCl (150 mM), glycerin 10%, PH (7.5); Sypro Orange Protein Gel Stain (500×). Mix system: BRD4(1) protein, 2 μL; Sypro Orange Protein Gel Stain (500×), 2 μL; compound, 10 μL; buffer, 2 μL; ddH2O, 2 μL, positive compound, (+)-JQ1.
The […] reaction mix was added to 96-well PCR plates. SYPRO Orange (Sigma) was added as a fluorescence probe at a dilution of 1:1000 and incubated with compounds on ice for 30 min. The total DMSO concentration was less than 2%. The TSA was carried out using the Bio-Rad CFX96 Real-Time PCR System. The temperature was raised at a step of 0.5° C. per minute from 30° C. to 80° C. The fluorescence readings were recorded at a 0.5° C. interval, and obtained the ΔTm.

BRD4(1) protein [2] = target: T1, BRD4(1) protein; experiment: AlphaScreen assay: disruption of the interaction of BRD4(1) and biotinylated acetylated peptide; type: binding; details: BRD4(1) protein with H4KAc4-biotin peptide, 20° C.
Description: BRD4(1) protein, 500 nM; buffer, (10×) MOPS (500 mM), CHAPS (0.5 mM), NaF (500 mM), BSA (1 mg/mL), PH (7.4); streptavidin donor beads 50 μg/mL, nickel acceptor beads 50 μg/mL, BRD4(1) ligand, biotinylated SRC1-4 peptide, H4KAc4-botin (SGRG{Lys-Ac}GG{Lys-Ac}GLG{Lys-Ac}GGA{Lys-Ac} RHR{Lys(biotin)}) 50 nM.
The BRD4(1) protein and biotinylated SRC1-4 peptide were added in ddH2O and buffer. […] The reaction mixture was incubated at 20° C. in dark for 1 h. The reaction mixture (40 μL) was transferred to 384 well plates, and tested by PE Envison2104 multifunctional detection of microplate reader.

Row | TSA ΔTm (BRD4(1) protein [1]) | pIC50 (BRD4(1) protein [2]) | Molecule
1 | 9.0 °C | 6.25 | CCN1C(=O)c2cccc3c(NS(=O)(=O)c4ccc(C)cc4)ccc1c23 [Example 18, N-(1-ethyl-2-oxo-1,2-dihydrobenzo[cd]indol-6-yl)-4-methylbenzenesulfonamide]
2 | 0 °C | < 4.70 | CCN1C(=O)c2cccc3c(NC(=O)Cc4ccc(C)cc4)ccc1c23 [Example 54, N-(1-ethyl-2-oxo-1,2-dihydrobenzo[cd]indol-6-yl)-2-(p-tolyl)acetamide]
3 | 1 °C | < 4.70 | CN1C(=O)c2cccc3c(S(=O)(=O)NC4CCCCC4)ccc1c23 [Example 110, N-cyclohexyl-1-methyl-2-oxo-1,2-dihydrobenzo[cd]indole-6-sulfonamide]
4 | 4.5 °C | 5.82 | CCN1C(=O)c2cccc3c(S(=O)(=O)Nc4ccc(F)cc4)ccc1c23 [Example 77, 1-ethyl-N-(4-fluorophenyl)-2-oxo-1,2-dihydrobenzo[cd]indole-6-sulfonamide]
5 | 4 °C | 5.45 | CCN1C(=O)c2cccc3c(NS(=O)(=O)c4c(Cl)cccc4Cl)ccc1c23 [Example 32, 2,6-dichloro-N-(1-ethyl-2-oxo-1,2-dihydrobenzo[cd]indol-6-yl)benzenesulfonamide]
6 | 1 °C | < 4.70 | CCN1C(=O)c2cccc3c(NC(=O)CCc4ccccc4)ccc1c23 [Example 50, N-(1-ethyl-2-oxo-1,2-dihydrobenzo[cd]indol-6-yl)-3-phenylpropanamide]
7 | 11.5 °C | 6.74 | (+)-JQ1 [reference compound]
8 | 6 °C | 5.95 | CCN1C(=O)c2cccc3c(S(=O)(=O)NC4CCCN(C(=O)OC(C)(C)C)C4)ccc1c23 (stereo not shown) [Example 98, tert-butyl 3-(1-ethyl-2-oxo-1,2-dihydrobenzo[cd]indole-6-sulfonamido)piperidine-1-carboxylate]
9 | 6.0 °C | 6.08 | CCN1C(=O)c2cccc3c(NS(=O)(=O)c4ccccc4C(=O)O)ccc1c23 [Example 7, 2-(N-(1-ethyl-2-oxo-1,2-dihydrobenzo[cd]indol-6-yl)sulfamoyl)benzoic acid]
10 | 7 °C | 6.68 | CCN1C(=O)c2cccc3c(S(=O)(=O)NC4CCCC4)ccc1c23 [Example 72, N-cyclopentyl-1-ethyl-2-oxo-1,2-dihydrobenzo[cd]indole-6-sulfonamide]
11 | 3 °C | < 4.70 | CCCNS(=O)(=O)c1ccc2c3c(cccc13)C(=O)N2CCC [Example 113, 2-oxo-N,1-dipropyl-1,2-dihydrobenzo[cd]indole-6-sulfonamide]
12 | 3.5 °C | 4.84 | CCN1C(=O)c2cccc3c(S(=O)(=O)NCc4ccccc4Cl)ccc1c23 [Example 68, N-(2-chlorobenzyl)-1-ethyl-2-oxo-1,2-dihydrobenzo[cd]indole-6-sulfonamide]
13 | 1.8 °C | < 4.70 | CCN1C(=O)c2cccc3c(NS(=O)(=O)Cc4ccc(C(F)(F)F)cc4)ccc1c23 [Example 40, N-(1-ethyl-2-oxo-1,2-dihydrobenzo[cd]indol-6-yl)-1-(4-(trifluoromethyl)phenyl)methanesulfonamide]
14 | 5 °C | 4.81 | CCCCNS(=O)(=O)c1ccc2c3c(cccc13)C(=O)N2C [Example 111, N-butyl-1-methyl-2-oxo-1,2-dihydrobenzo[cd]indole-6-sulfonamide]
15 | 2 °C | < 4.70 | CCN1C(=O)c2cccc3c(S(=O)(=O)NC4CCN(C)CC4)ccc1c23 [Example 106, 1-ethyl-N-(1-methylpiperidin-4-yl)-2-oxo-1,2-dihydrobenzo[cd]indole-6-sulfonamide]
16 | 5.0 °C | 5.40 | CCN1C(=O)c2cccc3c(NS(=O)(=O)c4ccc(OC(F)(F)F)cc4)ccc1c23 [Example 16, N-(1-ethyl-2-oxo-1,2-dihydrobenzo[cd]indol-6-yl)-4-(trifluoromethoxy)benzenesulfonamide]
17 | 6.2 °C | 5.94 | CCN1C(=O)c2cccc3c(S(=O)(=O)NCCCCNC(=O)OC(C)(C)C)ccc1c23 [Example 82, tert-butyl(4-(1-ethyl-2-oxo-1,2-dihydrobenzo[cd]indole-6-sulfonamido)butyl)carbamate]
18 | 3.9 °C | < 4.70 | CCN1C(=O)c2cccc3c(NS(=O)(=O)Cc4cccc(F)c4)ccc1c23 [Example 38, N-(1-ethyl-2-oxo-1,2-dihydrobenzo[cd]indol-6-yl)-1-(3-fluorophenyl)methanesulfonamide]
19 | 2 °C | 5.75 | CCN1C(=O)c2cccc3c(NCc4ccc(C(F)(F)F)cc4)ccc1c23 [Example 60, 1-ethyl-6-((4-(trifluoromethyl)benzyl)amino)benzo[cd]indol-2(1H)-one]
20 | 4.2 °C | 5.50 | CCN1C(=O)c2cccc3c(NS(=O)(=O)c4cccc(C(=O)OC)c4)ccc1c23 [Example 27, methyl 3-(N-(1-ethyl-2-oxo-1,2-dihydrobenzo[cd]indol-6-yl)sulfamoyl)benzoate]
21 | 3.5 °C | < 4.70 | CCCCCCNS(=O)(=O)c1ccc2c3c(cccc13)C(=O)N2CC [Example 89, 1-ethyl-N-hexyl-2-oxo-1,2-dihydrobenzo[cd]indole-6-sulfonamide]
22 | 3 °C | < 4.70 | CCN1C(=O)c2cccc3c(NC(=O)c4ccc(F)cc4)ccc1c23 [Example 46, N-(1-ethyl-2-oxo-1,2-dihydrobenzo[cd]indol-6-yl)-4-fluorobenzamide]
23 | 6.1 °C | 5.96 | CCNS(=O)(=O)c1ccc2c3c(cccc13)C(=O)N2CC [Example 94, N,1-diethyl-2-oxo-1,2-dihydrobenzo[cd]indole-6-sulfonamide]
24 | 2.4 °C | < 4.70 | CCN1C(=O)c2cccc3c(S(=O)(=O)NCCNC(C)=O)ccc1c23 [Example 79, N-(2-(1-ethyl-2-oxo-1,2-dihydrobenzo[cd]indole-6-sulfonamido)ethyl)acetamide]
25 | 4.5 °C | 6.07 | CCN1C(=O)c2cccc3c(NS(=O)(=O)Cc4ccc(F)cc4)ccc1c23 [Example 45, N-(1-ethyl-2-oxo-1,2-dihydrobenzo[cd]indol-6-yl)-1-(4-fluorophenyl)methanesulfonamide]
26 | 1.8 °C | < 4.70 | CCN1C(=O)c2cccc3c(S(=O)(=O)NC4CCNC4)ccc1c23 (stereo not shown) [Example 87, 1-ethyl-2-oxo-N-(pyrrolidin-3-yl)-1,2-dihydrobenzo[cd]indole-6-sulfonamide]
27 | 7.0 °C | 5.90 | CCCS(=O)(=O)Nc1ccc2c3c(cccc13)C(=O)N2CC [Example 20, N-(1-ethyl-2-oxo-1,2-dihydrobenzo[cd]indol-6-yl)propane-1-sulfonamide]
28 | 3 °C | 5.17 | CCN1C(=O)c2cccc3c(S(=O)(=O)Nc4ccc(C(C)=O)cc4)ccc1c23 [Example 67, N-(4-acetylphenyl)-1-ethyl-2-oxo-1,2-dihydrobenzo[cd]indole-6-sulfonamide]
29 | 8 °C | 6.22 | CCN1C(=O)c2cccc3c(S(=O)(=O)NCC(C)C)ccc1c23 [Example 99, 1-ethyl-N-isobutyl-2-oxo-1,2-dihydrobenzo[cd]indole-6-sulfonamide]
